Reference: patent US11510859B2, “Method for improving aqueous solubility of water-insoluble or slightly water-soluble drugs” (MARINOMED BIOTECH AG, priority 2015, dated 2022)
Each block holds one compound with its values, some of them ahead of it.

Tests used:
Assay type in all cases: physicochemical
[1] = Solubility of budesonide in 0.25x McIlvaine buffer with/without propylene glycol, saponin, dexpanthenol (Examples 5-9)
Description: (§1) Budesonide was analyzed by RP-HPLC (UV absorbance detection at 244 nm) using isocratic elution with 55% acetonitrile 0.01% TFA/45% water 0.01% TFA at 1 ml/min for 7 min on an Agilent Zorbax SB C18 3.5 μm 4.6×150 mm column with 4×4 mm RP8 pre-column. From the budesonide-containing samples 40 μl were injected and analyzed.
Buffer • B . . . 5% propylene glycol • C . . . 10% propylene glycol • D . . . 15% propylene glycol • y-axis . . . concentration of dissolved budesonide
FIGS. 2a and 2b refer to the concentrations of budesonide still dissolved after one month of storage at ambient temperature (T˜20-25° C.) in 0.25× McIlvaine buffer containing 5% (FIG. 2a) and 10% (FIG. 2b) propylene glycol (maximum concentration 550 μg/ml budesonide). […] Further increase of escin concentration remains substantially without additional benefit. […] 0% Dexpanthenol • B . . . 1% Dexpanthenol • C . . . 2% Dexpanthenol • D . . . 5% Dexpanthenol • y-axis . . . μg/ml dissolved budesonide • x-axis . . . w/v % Escin
FIGS. 3a and 3b are based on data sets identical to those of FIG. 2a/2b but after 3 months of storage at ambient temperature (T˜20-25° C.). • FIG. 3a: 5% propylene glycol; FIG. 3b: 10% propylene glycol • A . . . 0% Dexpanthenol • B . . . 1% Dexpanthenol • C . . . 2% Dexpanthenol • D . . . 5% Dexpanthenol • y-axis . . . μg/ml dissolved budesonide • x-axis . . . w/v % Escin
FIG. 4 represents that 0.03% w/v escin and 5% v/v dexpanthenol independently increase the solubility of budesonide in McIlvaine buffer in the absence of propylene glycol. […] Yet, the solubility of budesonide in this buffer system, i.e., in the absence of propylene glycol, remains at or below the corresponding values achieved in the presence of propylene glycol alone, i.e., in the absence of escin and dexpanthenol (see FIGS. 2a, b and 3a, b). The only exception being the value at column D which moderately exceeds the solubility values achieved with propylene glycol alone. • A . . . 0% Escin/0% Dexpanthenol • B . . . 0% Escin/5% Dexpanthenol • C . . . 0.03% Escin/0% Dexpanthenol • D . . . 0.03% Escin/5% Dexpanthenol • y-axis . . . concentration of dissolved budesonide in [μg/ml]
For Quillaja saponins, but not for glycyrrhizin, this applies also at a saponin concentration of 0.1%. […] Escin • B . . . Glycyrrhizin • C . . . Quillaja extract • * . . . w/v % Saponin component (escin, glycyrrhizin or Quillaja ext.) • # . . . v/v % Dexpanthenol • y-axis . . . concentration of dissolved budesonide

[2] = Budesonide solubility and storage stability in the presence of carrageenan (Examples 1, 2, 12, 13); conditions: 1.2 g/L iota-carrageenan, optionally 0.4 g/L kappa-carrageenan; 5% or 10% propylene glycol
Description: Samples of series A (0% dexpanthenol): 2.5 ml solution containing the respective escin concentration (McIlvaine 0.01%, 0.02%, 0.03% or McIlvaine buffer) were mixed with 5 ml carrageenan stock solution and 0.5 ml budesonide pre-solution and filled up to 10 ml with distilled water.
Samples of series B (2% dexpanthenol): 2.5 ml solution containing the respective escin concentration (McIlvaine 0.01%, 0.02%, 0.03% or McIlvaine buffer) were mixed with 0.2 ml dexpanthenol, 5 ml carrageenan stock solution and 0.5 ml budesonide pre-solution and filled up to 10 ml with distilled water. […]
After 3 months storage at room temperature, samples were taken and centrifuged for 11 min at 15700 rcf. The clear supernatant was filled into glass vials and the concentration of dissolved budesonide (maximal 500 μg/ml) was measured in duplicates by HPLC.
as §1, with “analyzed. […]” for “analyzed.”

[3] = Saturation concentrations of drugs in buffered solvent, HPLC of supernatant (Example 4); conditions: for Saturation concentration in 10% propylene glycol or DMSO without escin or dexpanthenol / Saturation concentration in 10% propylene glycol or DMSO, 0.1% escin and 5% dexpanthenol: McIlvaine buffer pH 6.0, compound pre-dissolved in propylene glycol
Description: 250 μl “McIlvaine 0.1%” were mixed with 50 μl dexpanthenol stock solution, brought to 900 μl with distilled water, and combined and vigorously mixed with 100 μl experimental compound pre-dissolved resp. pre-suspended in propylene glycol. Alternative solutions with compound pre-dilutions/pre-suspensions in DMSO were prepared. Samples were centrifuged for 10 min at 15800 rcf. Aliquots of the clear supernatants were transferred into autosampler glass vials and the content of the dissolved experimental compounds was analyzed by HPLC using isocratic elution with 70% or 80% acetonitrile 0.01% TFA/[…] or 30% water 0.01% TFA at 1 ml/min and 50° C. for 10 min on an Agilent Zorbax Eclipse Plus C18 column (3.5 μm, 4.6×150 mm) and UV absorbance detection at the wavelengths appropriate for the respective experimental compound.

[4] = Micelle formation of saponins, Hoechst 33342 fluorescence
Description: In water and aqueous buffers containing a detergent below the critical micelle concentration fluorescence of the Hoechst 33342 dye is almost undetectable. Upon increase of the detergent concentration until the critical micelle concentration is reached micelles begin to form and the dye starts getting incorporated into the micelles, whereupon an increase of a fluorescence signal can be detected. For the experiments of this example, the dye was mixed at a final concentration of 7 μM with aqueous buffer comprising different concentrations of saponin in black, flat and clear bottom 96-well plates and emission spectra were measured using a microplate reader (filters used: ex=355 nm and em=460 nm). Finally, data were background corrected.

Structure (SMILES): CCCC1O[C@@H]2C[C@H]3[C@@H]4CCC5=CC(=O)C=C[C@]5(C)[C@H]4[C@@H](O)C[C@]3(C)[C@]2(C(=O)CO)O1 (stereo partly shown) [Budesonide]
- effect of escin on solubility of the steroid ([1]; 0.01-0.02% w/v escin, 5% or 10% propylene glycol, one month storage at ambient temperature): dramatically increases the solubility
- combined effect of escin and dexpanthenol on budesonide solubility ([1]; 0.03% escin and 5% dexpanthenol, McIlvaine buffer, no propylene glycol): synergy seems to occur
- effect of dexpanthenol on stability of the experimental solutions ([1]; 3 months storage at ambient temperature, particularly at 5% propylene glycol and very low escin): seems to improve the stability
- effect of glycyrrhizin and Quillaja saponaria extract saponins on steroid solubility ([1]; in the absence of dexpanthenol): without substantial effect
- effect of carrageenans on solubility of the steroid [2]: do not substantially interfere with the solubility

Structure (SMILES): COc1cc(/C=C/C(=O)CC(=O)/C=C/c2ccc(O)c(OC)c2)ccc1O [Curcumin]
- Saturation concentration in 10% propylene glycol or DMSO, escin and 5% dexpanthenol ([3]; 0.03% escin): 126 µg/mL
- Saturation concentration in 10% propylene glycol or DMSO, saponin and 5% dexpanthenol ([3]; 2% glycyrrhizin instead of escin): 285 µg/mL
- Saturation concentration in 10% propylene glycol or DMSO without escin or dexpanthenol [3]: <0.2 µg/mL

Structure (SMILES): CC(=O)O[C@H]1C(=O)[C@@]2(C)[C@H]([C@H](OC(=O)c3ccccc3)[C@]3(O)C[C@H](OC(=O)[C@H](O)[C@@H](NC(=O)c4ccccc4)c4ccccc4)C(C)=C1C3(C)C)[C@]1(OC(C)=O)CO[C@@H]1C[C@@H]2O [Paclitaxel]
- Saturation concentration in 10% propylene glycol or DMSO without escin or dexpanthenol [3]: 2.71 µg/mL
- Saturation concentration in 10% propylene glycol or DMSO, 0.1% escin and 5% dexpanthenol [3]: 32.7 µg/mL

Structure (SMILES): CC[C@@H]1/C=C(\C)C[C@H](C)C[C@H](OC)[C@H]2O[C@@](O)(C(=O)C(=O)N3CCCC[C@H]3C(=O)O[C@H](/C(C)=C/[C@@H]3CC[C@H](Cl)[C@H](OC)C3)[C@H](C)[C@@H](O)CC1=O)[C@H](C)C[C@@H]2OC [Pimecrolimus]
- Saturation concentration in 10% propylene glycol or DMSO, saponin and 5% dexpanthenol ([3]; 1% glycyrrhizin instead of escin): 34.5 µg/mL
- Saturation concentration in 10% propylene glycol or DMSO without escin or dexpanthenol [3]: <0.1 µg/mL

Now from value to compound:

- Saturation concentration in 10% propylene glycol or DMSO without escin or dexpanthenol [3]: 132 µg/mL
- Saturation concentration in 10% propylene glycol or DMSO, 0.1% escin and 5% dexpanthenol [3]: 774 µg/mL
Structure (SMILES): C=CC[C@@H]1/C=C(\C)C[C@H](C)C[C@H](OC)[C@H]2O[C@@](O)(C(=O)C(=O)N3CCCC[C@H]3C(=O)O[C@H](/C(C)=C/[C@@H]3CC[C@@H](O)[C@H](OC)C3)[C@H](C)[C@@H](O)CC1=O)[C@H](C)C[C@@H]2OC.O [Tacrolimus/FK506, Tacrolimus]

- concentration sufficient to trigger the formation of micelles (same RFU level) ([4]; Hoechst 33342 dye 7 μM, room temperature): 0.5%
- increase of required concentration relative to escin ([4]; same fluorescence level): 25 fold
Structure (SMILES): CC1(C)[C@@H](O[C@H]2O[C@H](C(=O)O)[C@@H](O)[C@H](O)[C@H]2O[C@@H]2O[C@H](C(=O)O)[C@@H](O)[C@H](O)[C@H]2O)CC[C@]2(C)[C@H]3C(=O)C=C4[C@@H]5C[C@@](C)(C(=O)O)CC[C@]5(C)CC[C@@]4(C)[C@]3(C)CC[C@@H]12 [glycyrrhizin]
